Test results as given in US3966956A, “[1-(P-Chlorobenzoyl)-5-methoxy-2-methyl-3-indole]acetoxyacetic acid and salts in treating inflammation” (Troponwerke Dinklage & Company, priority 1972, dated 1976).
Where a name gives a salt, the structure may show the parent alone. Read-outs that look alike come from different tables or passages of the source.

Assays:
[1] = tested on: formalin oedema of the paw; assay: formalin oedema on the paw of a rat; assay type: in vivo; conditions: once orally
Text: (§1) Furthermore, with two other forms of inflammation, the inflammations produced with formalin and carrageenin on the paw of a rat, the oedema-inhibiting efficiency of I is stronger than that of II. […] These differences are also statistically significant.

kaolin oedema of the paw = kaolin oedema of the paw of a rat; assay type: in vivo; conditions: for ED50: read-out: ED50 (dose which reduces the oedemas by half as compared with a control group)
[2] = acute oral toxicity (LD50), mouse; conditions: in vivo, single oral administration, I given as sodium salt
Method: (§2) The toxicity data (LD50) of both compounds are as follows:
(§3) As regards I, after single oral administration of 55.5 mg/kg to the mouse and 38.9 mg/kg to the rat (using the sodium salt of I). The corresponding data for II are 18.4 and 24.5 mg/kg, respectively.

human albumin = assay: protein binding by the ultracentrifuging method; assay type: in vitro ADME; conditions: same protein and equivalent substance concentration
Text: Another interesting criterion for the activity of a pharmacon is protein binding. It is known that, in the serum, pharmacons are partly bound to protein and it is only those fractions that are not bound to protein which are responsible for the onset of biological activity. […] Where human albumin is used, the differences amount to about 60%, in other words, for the same protein concentration and an equivalent substance concentration, the values for non-protein-bound I are about 60% higher than those of II. The values found for II are consistent with those described in the literature (cf. E. Hvidberg et al, Eur. J. clin. Pharmacol. 4 (1972), 119). Accordingly, I can be expected to show greater activity in this test as well, i.e. a smaller dosage of I is required which can again be of advantage in toxicological terms.

adjuvant arthritis = assay: arthritis produced in the rat with Freud's adjuvants; assay type: in vivo
[3] = tested on: sulphydryl groups present in the serum; assay: Gerber method: reaction velocity of serum sulphydryl groups with 2,2'-dinitro-5,5-dithiobenzoic acid; assay type: biochemical; conditions: concentration range 0.5 to 3 mMol/liter
Text: Another characteristic test for determining the activity of non-steroid antiphlogistic substances is the method described by D. A. Gerber, N. Cohen and R. Giustra (cf. Biochem. Pharmacol. 16 (1967) 115) of influencing the physical-chemical behaviour of native protein, for example influencing the reaction velocity of the sulphydryl groups present in the serum with 2,2'-dinitro-5,5-dithiobenzoic acid. […] Since, according to Gerber et al, (loc. cit.), the percentage increase in reaction velocity is directly proportional to antiphlogistic activity, a greater activity of I by comparison with II can also be derived from this […] test; this applies above all in the lower concentration ranges (105:39) which come closest to the therapeutically attainable concentrations. In this case, too, the intact compound I can be shown to be the only active component.

[4] = acute oral toxicity (LD50), rat; conditions: in vivo, single oral administration, I given as sodium salt
Method: as §2, §3

[5] = resorption after oral administration in dogs; assay type: in vivo; conditions: dog
[6] = tested on: carrageenin oedema of the paw; assay: carrageenin oedema on the paw of a rat; assay type: in vivo; conditions: once orally
Text: as §1

protein = assay: Mizushima's Test (inhibition of protein hazing); assay type: biochemical
Method: It was also possible to confirm the superiority of I over II in Mizushima's Test in which potent antiphlogistics are known to inhibit protein hazing directly proportional to their antiphlogistic potency (cf. Arch. int. Pharmacodyn. 149 (1964), 1, and 157 (1965), 115).
A DE50 of 0.07 mg/ml was measured for the sodium salt of I, in other words the level of protein hazing was inhibited by 50% at this concentration.

[7] = cited from earlier work
[8] = patients, relatively slight side effects and serious cases; cited from earlier work
[9] = stability of the dissolved sodium salt in water or water/alcohol; assay type: physicochemical; conditions: aqueous or aqueous-alcoholic solution
Text: the free acid I can be converted into its salts in a manner known per se. Pharmacologically acceptable and conventional inorganic and organic bases can be considered for this purpose.

COc1ccc2c(c1)c(CC(=O)OCC(=O)O)c(C)n2C(=O)c1ccc(Cl)cc1 [I, [1-(p-chlorobenzoyl)-5-methoxy-2-methyl-3-indole]-acetoxyacetic acid]
inhibition of formalin oedema ([1]; 1.5 mg/kg): 25% | ED50 (kaolin oedema of the paw; rat, single oral application, range of confidence (P = 5%): I 0.37 to 0.67, II 0.83 to 1.40): 0.5 mg/kg | relative effectiveness I versus II on kaolin oedema (kaolin oedema of the paw; rat, single oral, from ED50): about twice as effective as II | LD50 [2]: 55.5 mg/kg | increase of non-protein-bound fraction over II (human albumin): about 60% | antiphlogistic effect on adjuvant arthritis compared with II (adjuvant arthritis; oral, daily dose 3.5 mg/kg of I versus equimolar 3 mg/kg of II): decidedly stronger than that of the equimolar daily dose of 3 mg/kg of II | inflammation-inhibiting efficiency on adjuvant arthritis (adjuvant arthritis; primary and generalised inflammation symptoms): strong inflammation-inhibiting efficiency | increase in reaction velocity of serum sulphydryl groups [3]: 105-335% | LD50 [4]: 38.9 mg/kg | detection as an unchanged molecule in the organism [5]: can be detected as an unchanged molecule for several hours in the organism | resorption after oral administration [5]: well resorbed after oral administration | inhibition of carrageenin oedema ([6]; 1.5 mg/kg): 62%

COc1ccc2c(c1)c(CC(=O)O)c(C)n2C(=O)c1ccc(Cl)cc1 [II, 1-(p-chlorobenzoyl)-5-methoxy-2-methyl-3-indole acetic acid, reference compound]
inhibition of formalin oedema ([1]; 1.6 mg/kg): 13.8% | ED50 (kaolin oedema of the paw; Rattus norvegicus, po): 1.04 mg/kg | LD50 [2]: 18.4 mg/kg | DE50 (concentration inhibiting the level of protein hazing by 50%) (protein): 0.13 mg/mL | patients in whom therapy had to be discontinued because of the side effects [7]: ~10% | increase in reaction velocity of serum sulphydryl groups [3]: 39-272% | LD50 [4]: 24.5 mg/kg | side effects [8]: neurosensitive disturbances such as headaches, vertigos and concentration difficulties, digestive complaints with loss of appetite, sickness, stomach pains, diarrhoea and, finally, some serious cases of intestinal bleeding, stomach ulcers and, occasionally, neurological deficiency symptoms | inhibition of carrageenin oedema ([6]; 1.6 mg/kg): 42%

COc1ccc2c(c1)c(CC(=O)OCC(=O)O)c(C)n2C(=O)c1ccc(Cl)cc1 [sodium salt of I]
stability/clarity of solution of the sodium salt [9]: the solution remains clear for a considerable period of time | DE50 (concentration inhibiting the level of protein hazing by 50%) (protein): 0.07 mg/mL

COc1ccc2c(c1)c(CC(=O)O)c(C)n2C(=O)c1ccc(Cl)cc1 [sodium salt of the known compound II, reference compound]
stability/clarity of solution of the sodium salt [9]: almost immediately, a clouding of the solution and the compound II begins to decompose
